Assay results as given in patent US20070178544A1, “Anti fk778antibodies and high sensitive immunoassay methods” (priority 2004, published 2007).

Experiment: Selection of an immunogen: titer of antibody in sera of immunized mice
Type: in vivo
Settings: immunogen conjugated with bovine thyroglobulin, with FCA, Balb/c mice; four (FR267471, FR266831) or seven (FR270531) immunizations
Description: To obtain the selective antibody against FK778, two kinds of immunogens which were conjugated (FR267471 and FR266831) with bovine thyroglobulin (Sigma-Aldrich Corp.) mixed with Freund's complete adjuvant (FCA) (Difco) were immunized in hyperimmune Balb/c mice. After four times immunizations, the titer of antibody against the FR267471-BSA or the FR266831-BSA in sera was measured by enzyme-linked immunosorbent assay. […] To obtain immunogens having higher titer than the two immunogens, another type of immunogen FR270531 was synthesized. […] Accordingly, the present inventors have used FR270531 as an immunogen to produce antibodies directed to FK778, and FR267471 and FR266831 as positive and negative control to select the FK778 antibody specifically binding to the FK778 substance.

| Structure (SMILES) | titer of antibody in sera |
| --- | --- |
| N#C/C(C(=O)Nc1ccc(C(F)(F)F)cc1)=C(/O)CCCC(=O)O [FR266831, (5Z)-6-cyano-5-hydroxy-7-oxo-7-{[4-(trifluoromethyl)phenyl]amino}-5-heptenoic acid] | not sufficient |
| C#CCC/C(O)=C(\C#N)C(=O)Nc1ccc(OCCCCCC(=O)Oc2c(F)c(F)c(F)c(F)c2F)cc1 [FR270531, pentafluorophenyl 6-(4-{[(2Z)-2-cyano-3-hydroxy-2-hepten-6-ynoyl]amino}phenoxy)hexanoate] | higher than those of FR267471 and FR266831 |
| C#CCC/C(O)=C(\C#N)C(=O)Nc1ccc(OCCCCCC(=O)O)cc1 [FR267471, 6-(4-{[(2Z)-2-cyano-3-hydroxy-2-hepten-6-ynoyl]amino}phenoxy)hexanoic acid] | not sufficient |
